Assays:
Test in all cases: Post-emergence test, weed control effect
Format in all cases: in vivo
Conditions in all cases: after 3 weeks
Chenopodiaceae = test system: Chenopodiaceae
Outline: (§1)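 Activity is expressed as a level from 0 (no effect) to 10 (plant dead), each step matching a further 10% fresh-weight inhibition, assessed 3 weeks post-treatment. Treatment: spray at 2-3 leaf stage of pot-grown plants, compound in acetone, Tween-80 and water with 80% vegetable oil methyl ester synergist at 1500 g/ha.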

Amaranthus retroflexus = test system: Amaranthus retroflexus
Outline: as §1

Veronica polita = test system: Veronica polita
Outline: as §1

Rorippa indica = test system: Rorippa indica
Outline: as §1

O=C(Cc1ccccc1)Oc1cc(C(F)(F)F)nnc1-c1ccc(F)c(F)c1 [Compound 1-94]
10: weed control effect, Chenopodiaceae (activity level) (Chenopodiaceae; Dose 3000 g/ha) | weed control effect, Amaranthus retroflexus (activity level) (Amaranthus retroflexus; Dose 3000 g/ha) | weed control effect, Veronica polita (activity level) (Veronica polita; Dose 3000 g/ha) | weed control effect, Rorippa indica (activity level) (Rorippa indica; Dose 3000 g/ha)

CC/C(CC(C)CC)=N/Oc1cc(C(F)(F)F)nnc1-c1ccnn1C (stereo not drawn) [Compound 1-179]
10: weed control effect, Chenopodiaceae (activity level) (Chenopodiaceae; Dose 3000 g/ha) | weed control effect, Amaranthus retroflexus (activity level) (Amaranthus retroflexus; Dose 3000 g/ha) | weed control effect, Veronica polita (activity level) (Veronica polita; Dose 3000 g/ha) | weed control effect, Rorippa indica (activity level) (Rorippa indica; Dose 3000 g/ha)

O=C(Oc1cc(C(F)(F)F)nnc1-c1ccc(Cl)c(Cl)c1)Sc1ccccc1 [Compound 1-102]
10: weed control effect, Chenopodiaceae (activity level) (Chenopodiaceae; Dose 3000 g/ha) | weed control effect, Amaranthus retroflexus (activity level) (Amaranthus retroflexus; Dose 3000 g/ha) | weed control effect, Veronica polita (activity level) (Veronica polita; Dose 3000 g/ha) | weed control effect, Rorippa indica (activity level) (Rorippa indica; Dose 3000 g/ha)

Cn1nccc1-c1nnc(C(F)(F)F)cc1O [Compound 774]
10: weed control effect (activity level), Chenopodiaceae (Chenopodiaceae; Dose 3000 g/ha) | weed control effect (activity level), Amaranthus retroflexus (Amaranthus retroflexus; Dose 3000 g/ha) | weed control effect (activity level), Veronica polita (Veronica polita; Dose 3000 g/ha) | weed control effect (activity level), Rorippa indica (Rorippa indica; Dose 3000 g/ha)

Oc1cc(CF)nnc1-c1cccnc1F [Compound 1076]
10: weed control effect (activity level), Chenopodiaceae (Chenopodiaceae; Dose 3000 g/ha) | weed control effect (activity level), Amaranthus retroflexus (Amaranthus retroflexus; Dose 3000 g/ha) | weed control effect (activity level), Veronica polita (Veronica polita; Dose 3000 g/ha) | weed control effect (activity level), Rorippa indica (Rorippa indica; Dose 3000 g/ha)

Cc1cc(C)c(-c2nnc(C(F)(F)F)cc2O)o1 [Compound 439]
10: weed control effect (activity level), Chenopodiaceae (Chenopodiaceae; Dose 3000 g/ha) | weed control effect (activity level), Amaranthus retroflexus (Amaranthus retroflexus; Dose 3000 g/ha) | weed control effect (activity level), Veronica polita (Veronica polita; Dose 3000 g/ha) | weed control effect (activity level), Rorippa indica (Rorippa indica; Dose 3000 g/ha)

Oc1cc(C(F)(F)F)nnc1-c1cnc(F)cc1Cl [Compound 1001]
10: weed control effect (activity level), Chenopodiaceae (Chenopodiaceae; Dose 3000 g/ha) | weed control effect (activity level), Amaranthus retroflexus (Amaranthus retroflexus; Dose 3000 g/ha) | weed control effect (activity level), Veronica polita (Veronica polita; Dose 3000 g/ha) | weed control effect (activity level), Rorippa indica (Rorippa indica; Dose 3000 g/ha)

O=C(CSc1ccccc1)Oc1cc(C(F)(F)F)nnc1-c1ccc(F)c(F)c1 [Compound 1-95]
10: weed control effect, Chenopodiaceae (activity level) (Chenopodiaceae; Dose 3000 g/ha) | weed control effect, Amaranthus retroflexus (activity level) (Amaranthus retroflexus; Dose 3000 g/ha) | weed control effect, Veronica polita (activity level) (Veronica polita; Dose 3000 g/ha) | weed control effect, Rorippa indica (activity level) (Rorippa indica; Dose 3000 g/ha)

O=C(Oc1cc(C(F)(F)F)nnc1-c1ccc(F)cc1)Sc1ccccc1 [Compound 1-164]
10: weed control effect, Chenopodiaceae (activity level) (Chenopodiaceae; Dose 3000 g/ha) | weed control effect, Amaranthus retroflexus (activity level) (Amaranthus retroflexus; Dose 3000 g/ha) | weed control effect, Veronica polita (activity level) (Veronica polita; Dose 3000 g/ha) | weed control effect, Rorippa indica (activity level) (Rorippa indica; Dose 3000 g/ha)

CC(C)n1nccc1-c1nnc(C(F)(F)F)cc1O [Compound 828]
10: weed control effect (activity level), Chenopodiaceae (Chenopodiaceae; Dose 3000 g/ha) | weed control effect (activity level), Amaranthus retroflexus (Amaranthus retroflexus; Dose 3000 g/ha) | weed control effect (activity level), Veronica polita (Veronica polita; Dose 3000 g/ha) | weed control effect (activity level), Rorippa indica (Rorippa indica; Dose 3000 g/ha)

N#Cc1cccc(-c2nnc(C(F)(F)F)cc2O)c1 [Compound 742]
10: weed control effect (activity level), Chenopodiaceae (Chenopodiaceae; Dose 3000 g/ha) | weed control effect (activity level), Amaranthus retroflexus (Amaranthus retroflexus; Dose 3000 g/ha) | weed control effect (activity level), Veronica polita (Veronica polita; Dose 3000 g/ha) | weed control effect (activity level), Rorippa indica (Rorippa indica; Dose 3000 g/ha)

Oc1cc(C(F)(F)F)nnc1-c1ccc(C2CC2)cc1 [Compound 24]
10: weed control effect (activity level), Chenopodiaceae (Chenopodiaceae; dose 2000 g/ha) | weed control effect (activity level), Amaranthus retroflexus (Amaranthus retroflexus; dose 2000 g/ha) | weed control effect (activity level), Veronica polita (Veronica polita; dose 2000 g/ha) | weed control effect (activity level), Rorippa indica (Rorippa indica; dose 2000 g/ha)

CC(C)COC(=S)Oc1cc(C(F)(F)F)nnc1-c1ccc(Cl)cc1Cl [Compound 1-158]
10: weed control effect, Chenopodiaceae (activity level) (Chenopodiaceae; Dose 3000 g/ha) | weed control effect, Amaranthus retroflexus (activity level) (Amaranthus retroflexus; Dose 3000 g/ha) | weed control effect, Veronica polita (activity level) (Veronica polita; Dose 3000 g/ha) | weed control effect, Rorippa indica (activity level) (Rorippa indica; Dose 3000 g/ha)

Oc1cc(C(F)(F)F)nnc1-c1cnc(Cl)c(F)c1 [Compound 1006]
10: weed control effect (activity level), Chenopodiaceae (Chenopodiaceae; Dose 3000 g/ha) | weed control effect (activity level), Amaranthus retroflexus (Amaranthus retroflexus; Dose 3000 g/ha) | weed control effect (activity level), Veronica polita (Veronica polita; Dose 3000 g/ha) | weed control effect (activity level), Rorippa indica (Rorippa indica; Dose 3000 g/ha)

Cn1ncc(I)c1-c1nnc(C(F)(F)F)cc1O [Compound 807]
10: weed control effect (activity level), Chenopodiaceae (Chenopodiaceae; Dose 3000 g/ha) | weed control effect (activity level), Amaranthus retroflexus (Amaranthus retroflexus; Dose 3000 g/ha) | weed control effect (activity level), Veronica polita (Veronica polita; Dose 3000 g/ha) | weed control effect (activity level), Rorippa indica (Rorippa indica; Dose 3000 g/ha)
